According to patent US20130090360A1 (priority 2010, published 2013):
Read-outs that look alike come from different tables or passages of the source.

Assays:
Pyricularia oryzae = assay type: in vivo, Pyricularia oryzae on rice plants (variety Tainong 67); conditions: field, natural infection
Pyricuaria oryzae = assay type: in vivo, Pyricuaria oryzae on rice plants (variety Tainong 67); conditions: field, natural infection

SMILES | Efficacy % 15 days after first application (Pyricularia oryzae; application rate 25 g ai/ha) | Efficacy % 15 days after first application (Pyricularia oryzae; application rate 50 g ai/ha) | Efficacy % 15 days after first application (Pyricularia oryzae; application rate 75 g ai/ha) | Efficacy % 22 days after first application (Pyricuaria oryzae; application rate 25 g ai/ha) | Efficacy % 22 days after first application (Pyricuaria oryzae; application rate 50 g ai/ha) | Efficacy % 22 days after first application (Pyricuaria oryzae; application rate 75 g ai/ha) | Efficacy % 15 days after first application (Pyricularia oryzae; application rate 100 g ai/ha) | Efficacy % 22 days after first application (Pyricuaria oryzae; application rate 100 g ai/ha) | Efficacy % 22 days after first application (Pyricuaria oryzae; application rate 200 g ai/ha)
Fc1ccc([C@]2(Cn3cncn3)O[C@H]2c2ccccc2Cl)cc1 (racemic) [Epoxiconazole (EPX), epoxiconazole] | 17.7% | 24.1% | 35.1% | 1.2% | 0.0% | 5.6% | – | – | –
Cc1cccc2sc3nncn3c12 [Tricyclazol, tricyclazole] | – | – | – | – | – | – | 34.9% | 5.6% | 0.0%
